US20070249635A1, “Fungicidal Mixtures Based on a Triazolopyrimidine Derivative and a Conazole” (BASF Aktiengesellschaft, priority 2003, published 2007)

System: Plasmopara viticola
Assay: activity against peronospora of grapevines caused by Plasmopara viticola (protective spray on potted vines, cultivar Riesling)
Format: in vivo
Settings: individual active compound, untreated control 90% infection
Procedure: The active compounds, separately or jointly, were prepared as a stock solution comprising 0.25% by weight of active compound in acetone or DMSO. 1 % by weight of the emulsifier Uniperol® EL (wetting agent having emulsifying and dispersant action based on ethoxylated alkylphenols) was added to this solution, and the mixture was diluted with water to the desired concentration.
Use example—activity against peronospora of gravevines caused by Plasmopara viticola
Leaves of potted vines of the cultivar “Riesling” were sprayed to runoff point with an aqueous suspension having the concentration of active compound stated below. The next day, the undersides of the leaves were inoculated with an aqueous zoospore suspension of Plasmopara viticola. The grapevines were then initially placed in a water-vapor-saturated chamber at 24° C. for 48 hours and then in a greenhouse at 20-30° C. for 5 days. After this period of time, the plants were again placed in a humid chamber for 16 hours to promote sporangiophore eruption. The extent of the development of the disease on the undersides of the leaves was then determined visually.
The visually determined percentages of infected leaf areas were converted into efficacies as % of the untreated control:
The efficacy (E) is calculated as follows using Abbot's formula: E=(1−α/β)·100 • α corresponds to the fungicidal infection of the treated plants in % and • β corresponds to the fungicidal infection of the untreated (control) plants in %
An efficacy of 0 means that the infection level of the treated plants corresponds to that of the untreated control plants; an efficacy of 100 means that the treated plants were not infected.
The expected efficacies of combinations of active compounds were determined using Colby's formula (Colby, S.R. “Calculating synergistic and antagonistic responses of herbicide combinations”, Weeds, 15, 20-22, 1967) and compared with the observed efficacies. Colby's formula: E=x+y−x·y/100 • E expected efficacy, expressed in % of the untreated control, when using the mixture of the active compounds A and B at the concentrations a and b • x efficacy, expressed in % of the untreated control, when using the active compound A at the concentration a • y efficacy, expressed in % of the untreated control, when using the active compound B at the concentration b

| SMILES | Efficacy in % of the untreated control (4 ppm in the spray liquor) | Efficacy in % of the untreated control (1 ppm in the spray liquor) | Efficacy in % of the untreated control (16 ppm in the spray liquor) |
| --- | --- | --- | --- |
| CC1CCN(c2c(-c3c(F)cccc3Cl)c(Cl)nc3ncnn23)CC1 [A] | 11% |  |  |
| C[C@H](Nc1c(-c2c(F)cc(F)cc2F)c(Cl)nc2ncnn12)C(F)(F)F [B] | 11% |  |  |
| CC1CCN(c2c(-c3c(F)cc(F)cc3F)c(Cl)nc3ncnn23)CC1 [I, 5-chloro-7-(4-methylpiperidin-1-yl)-6-(2,4,6-trifluorophenyl)-[1,2,4]triazolo[1,5-a]pyrimidine] | 56% |  |  |
| CC(C1CC1)C(O)(Cn1cncn1)c1ccc(Cl)cc1 (stereo not drawn) [II, 2-(4-chlorophenyl)-3-cyclopropyl-1-[1,2,4]triazol-1-ylbutan-2-ol] | 0% | 0% | 0% |
